Reference: patent US20110010099A1, “Correlation Analysis of Biological Systems” (priority 2005, published 2011)

Key:
Format in all cases: in vivo
[1] = system: liver of male Wistar Hannover rats; assay: Rat hepatotoxicity study: liver morphology / histopathology for steatosis; settings: 7 days dosing, sacrifice day 8, male Wistar Hannover rats
Description: The primary objective of the study was to discover biomarkers in plasma of hepatic steatotic processes. In the course of this study, multiple molecular profiling techniques and data analysis methodologies were employed. A corollary objective of this study was to elucidate mechanisms underlying hepatic steatosis induced by the drug.
The study was designed to generate tissue and body fluid samples from groups of animals exposed for varying times at different doses to a drug previously shown to produce toxic steatosis of the liver.
(§1) Five Wistar Hannover male rats were used per group. Three groups were dosed for 7 days (control, low and intermediate dose) and urine collected twice daily for up to 7 days. One group was dosed once with a high dose of the drug and kept in a metabolism cage for a recovery study. In addition, three groups (control, intermediate and high dose) were dosed once and sacrificed after 24 hours. Plasma and liver tissue samples were collected from all groups at necropsy. Clinical pathology was performed and histopathological evaluations were provided.
The study was designed to generate tissue and body fluid samples from groups of animals treated for varying times and with different doses of ABC123. The different time points and dosing schedules were intended to allow the identification of biomarkers of steatosis over different times and doses.

[2] = system: plasma analytes of male Wistar Hannover rats; assay: Plasma GC-MS metabolite profiling in rat hepatotoxicity study; settings: Group 3 drug-administered animals compared to Group 1 animals
Method: as §1
Liver and plasma lipid LC-MS. Samples (liver or plasma) were treated with isopropanol to precipitate the protein and to extract the lipid metabolites. […] Resulting mass spectra were peak detected with IMPRESS (proprietary software, BG Medicine, Inc., Waltham, Mass.) and aligned/normalized with Equest and WinLin (proprietary software, BG Medicine, Inc., Waltham, Mass.). […] Metabolites detected with this approach include polar and non-polar lipids. […] The samples were detected with electron impact ionization on an Agilent 5973 MSD. […] Metabolites detected with this method include: alcohols, aldehydes and cyclohexanols, amino acids, acyl amino acids, succinylamino acids, amines, aromatic compounds, fatty acids (>C6), organic acids, phospho-organic acids, sugars, sugar acids, sugar amines, and sugar phosphates. […]

[3] = system: Enzyme_ABC in liver tissue; assay: Liver LC-MS proteomics profiling in rat hepatotoxicity study; settings: Group 3 drug-administered animals relative to Group 1 control animals
Method: as §1
• Sample: 100 mg of liver dissected from the thawed liver sample was cut into four 25 mg pieces and homogenized. • Clarification/Fractionation: Unbroken cells, nuclei and extracellular debris were removed using low-G centrifugation, and the resulting clarified homogenate was then subjected to membrane/cytosol fractionation using high-speed ultracentrifugation. • Protein Fractionation of Cytosol: The total cytosolic protein was subjected to C4 reversed-phase column chromatography to isolate 3 fractions for proteomic analysis. […] The resulting membrane tryptic peptide fraction was dried in vacuo. • Profiling of Peptides: Cytosolic peptides from the three acidic peptide sets and the membrane tryptic peptide fraction were quantitatively analyzed for differential expression via reversed-phase LC-ESI-MS. […]

[4] = system: liver mRNA transcripts (Enzyme_ABC, Enzyme_DEF); assay: Liver mRNA transcript profiling (Affymetrix U34A) in rat hepatotoxicity study; settings: Group 3 drug-administered animals relative to Group 1 control animals
Method: Affymetrix microarray processing was carried out on liver tissue samples from 35 animals distributed among the seven experimental groups.
An additive effect on the log-transformed signal related to hybridization day was modeled, and the triplicate control samples were used to estimate the effect.

In the case of `Cn1c(=O)c2c(ncn2CC2OCCO2)n(C)c1=O` [ABC123], the “steatosis upon examination of the livers using standard morphology techniques” value ([1]; Group 2 (lowest dose): 20 mg/kg/day) is reported as “no evidence of steatosis”, the “steatosis upon examination of the livers using standard morphology techniques” value ([1]; Group 3: 200 mg/kg/day) is reported as “morphological steatosis” and the “increase in abundance of Metabolite_XYZ in plasma (plasma GC-MS platform)” value [2] is reported as “approximately 1.4 fold”. For the same compound, the “reduction in abundance of Enzyme_ABC in liver tissue (proteomics platform)” value [3] was “approximately 2 fold” and the “reduction in abundance of Enzyme_ABC in liver tissue (mRNA transcript platform)” value [4] was “approximately 1.7 fold”.
